Reference: PubChem BioAssay (NCI)
“And” between values parts separate entries of the source, which are not always exact repeats. Identical values can stand only once.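 Test compounds were applied to cells in 96-well plates for 48 hours at 5 doses. GI50 = concentration required for 50% inhibition of growth. At the TGI there is no net growth.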

Experiments:
Experiment in all cases: NCI tumour cell line growth inhibition, 48 h
P388/ADR leukemia = tested on: P388/ADR leukemia
M19-MEL melanoma = tested on: M19-MEL melanoma
DMS 273 small cell lung = tested on: DMS 273 small cell lung
KM20L2 colon = tested on: KM20L2 colon
SN12K1 renal = tested on: SN12K1 renal
DLD-1 colon = tested on: DLD-1 colon
SNB-78 CNS = tested on: SNB-78 CNS
DMS 114 small cell lung = tested on: DMS 114 small cell lung
P388 leukemia = tested on: P388 leukemia
HOP-18 NSCLC = tested on: HOP-18 NSCLC
LXFL 529 NSCLC = tested on: LXFL 529 NSCLC
RXF-631 renal = tested on: RXF-631 renal

For `Cc1c2cc[nH]c(C(F)(F)F)c2cc2c1nc1ccccc12`, the TGI (P388/ADR leukemia) was over 70.3 µM, the TGI (M19-MEL melanoma) was over 125 µM and the TGI (DMS 273 small cell lung) was over 125 µM. The TGI (KM20L2 colon) was over 125 µM, the TGI (SN12K1 renal) was over 125 µM and the TGI (DLD-1 colon) was over 125 µM. For the same molecule, the TGI (SNB-78 CNS) was over 125 µM, the TGI (DMS 114 small cell lung) was over 125 µM and the TGI (P388 leukemia) was over 125 µM.
`CCC1(O)CC(OC2CC(N(C)C)C(OC3CC4OC5CC(=O)C(C)OC5OC4C(C)O3)C(C)O2)c2c(cc3c(c2O)C(=O)c2c(O)ccc(O)c2C3=O)C1C(=O)OC` (stereo unspecified) was tested, and the GI50 (P388/ADR leukemia) was 0.0075 µM, the TGI (P388/ADR leukemia) was 0.008 µM and < 0.0451 µM and the GI50 (HOP-18 NSCLC) was 0.00875 µM and 0.0163 µM. For the same molecule, the TGI (HOP-18 NSCLC) was 0.0821 µM and 0.0764 µM, the TGI (M19-MEL melanoma) was 0.0705 µM and 0.0241 µM and the TGI (LXFL 529 NSCLC) was 1.18 µM. For the same molecule, the GI50 (DMS 273 small cell lung) was 0.0075 µM, the TGI (DMS 273 small cell lung) was 0.0342 µM and 0.0217 µM and the GI50 (KM20L2 colon) was 0.00351 µM and 0.0075 µM. For the same molecule, the TGI (KM20L2 colon) was 0.356 µM and 0.0462 µM and 0.0889 µM, the GI50 (SN12K1 renal) was 0.00862 µM and the TGI (SN12K1 renal) was 0.0369 µM and 0.0325 µM. For the same molecule, the GI50 (DLD-1 colon) was 0.00984 µM, the TGI (DLD-1 colon) was 0.69 µM and 0.13 µM and the GI50 (SNB-78 CNS) was 0.0126 µM. The TGI (SNB-78 CNS) was 0.854 µM and 0.536 µM, the TGI (DMS 114 small cell lung) was 0.0431 µM and 0.0473 µM and the GI50 (P388 leukemia) was 0.0075 µM. For the same molecule, the TGI (P388 leukemia) was 0.00422 µM and 0.00817 µM.
For `COC(=O)C(=O)C(C(=O)Nc1cccc(C)c1C)C1Sc2ccccc2NC1=O` (stereo unspecified), the TGI (HOP-18 NSCLC) was over 25 µM, the TGI (M19-MEL melanoma) was over 25 µM and the TGI (LXFL 529 NSCLC) was over 25 µM. For the same molecule, the TGI (DMS 273 small cell lung) was over 25 µM, the TGI (KM20L2 colon) was over 25 µM and the TGI (DLD-1 colon) was over 25 µM. For the same molecule, the TGI (SNB-78 CNS) was over 25 µM and the TGI (DMS 114 small cell lung) was 19 µM.
`O=C(Nc1cccc2ccccc12)Oc1ccccc1C1CCCCC1` was tested, and the TGI (HOP-18 NSCLC) was 33.2 µM, the TGI (M19-MEL melanoma) was 43.4 µM and the TGI (LXFL 529 NSCLC) was 38.9 µM. For the same molecule, the TGI (DMS 273 small cell lung) was 38.1 µM, the TGI (KM20L2 colon) was 47.5 µM and the TGI (RXF-631 renal) was 36.7 µM. For the same molecule, the TGI (DLD-1 colon) was 44.8 µM, the TGI (SNB-78 CNS) was 57.9 µM and the TGI (DMS 114 small cell lung) was 41.9 µM.
For `O=C(O)CCCl`, the TGI (HOP-18 NSCLC) was over 5000 µM, the TGI (M19-MEL melanoma) was over 5000 µM and the TGI (LXFL 529 NSCLC) was over 5000 µM. It also gave a TGI (DMS 273 small cell lung) of over 5000 µM, a TGI (DLD-1 colon) of over 5000 µM and a TGI (SNB-78 CNS) of over 5000 µM.
